Among the data in ChEMBL document CHEMBL3390847, “Boronic acids in medicinal chemistry: anticancer, antibacterial and antiviral applications” (Medchemcomm, 2010) are Ki and IC50 values, retold here.

The nature of test [1]: Inhibition of beta-lactamase SHV-1 D104K/G238S mutant (unknown origin) expressed in Escherichia coli DH10B using nitrocefin as substrate.
Test [2] can be described thus: Inhibition of beta-lactamase SHV-1 (unknown origin) expressed in Escherichia coli DH10B using nitrocefin as substrate.
A short description of test [3]: Cytotoxicity against human MCF10A cells. Type of test: cell-based. Particulars: MCF-10A.
The nature of test [4]: Cytotoxicity against human MCF12A cells. It is filed as cell-based. The following applies: MCF-12A.

Structures are written as SMILES. pIC50, pKi: −log10 of the molar value.

For `CC(=O)NCB(O)O` [ACETAMIDOMETHYLBORONIC ACID], the pKi (usually the negative decadic logarithm of the Ki, by convention in mol/L) was 5.96 in test [1] and 5.05 in test [2].
For `O=C(/C=C/c1ccc(I)cc1)c1ccc(OCB(O)O)cc1`, the pIC50 (as a rule, −log10 of the IC50, conventionally taken in molar units) in test [3] was 4.42; in test [4], 4.00.
